In patent EP1229025A1, “NOVEL QUINAZOLINE DERIVATIVES” (Japan Energy Corporation, priority 1999, dated 2001) one finds IC50 data, which are given here for 24 compounds.

In general, IC50 refers to the concentration at which inhibition is half-maximal. Read a low IC50 as greater potency in that assay.

The subject of one assay is IL-4 production. Nature of the assay: IL-4 production inhibiting test in OVA-stimulated spleen cells of immunised mouse (ELISA). Format: cell-based. Conditions: 72 h, spleen cells of OVA-immunised BALB/c-mouse, OVA 0.5 mg/ml, 3 days. As to the method:
Example 146: IL-4 and IL-5 production inhibiting test
A 6-weeks-old BALB/c-mouse (Nippon Charles River) was bred preparatively for 1 week and given at the day 0 and day 14 intraperitoneal injection of 100 µl PBS to give immunity which PBS contained 0.1 mg/ml of Ovalbumin(OVA) and 40 mg/ml of aluminum hydroxide. At the day 21 the spleen was taken out from the mouse. The spleen was dissected with a pincette in cooled PBS, passed through a mesh and subjected to centrifugation at 4 °C at 1,500 rpm for 5 minutes. The cells was added with 5 ml of 0.2% NaCI to destroy erythrocytes, and then was made isotonic by adding 5 ml of 1.6% of NaCl. After centrifugation at 4 °C, 1,500 rpm for 5 minutes, the cells were washed twice with 10 ml ofRPMI1640 culture medium. The obtained spleen cells were suspended in cRPMI1640 medium, and the number of the cells was measured by Tuerk dying. After being adjusted to 1 × 10^7 cells/ml, the cells were planted in 100 µl/well on a 96-well plate (FALCON). The cells were cultured at 37 °C under 5% CO2 atmosphere for about 4 hours. OVA was prepared to 10 mg/ml with cRPMI1640 culture medium and subjected to sterile filtration. The 10 mg/ml OVA was diluted with cRPMI1640 culture medium to give 1 mg/ml OVA. A compound to be tested which was dissolved in DMSO in at 1,000-fold concentration was diluted up to 500-fold with cRPMI1640 culture medium containing 1 mg/ml OVA and added in 100 µl/well to the cells which had been planted on the previously mentioned 96-well plate (final concentration of OVA: 0.5 mg/ml). As the controls, the solutions were made by diluting DMSO of the same volume as with the test compounds with cRPMI1640 culture medium containing 1 mg/ml OVA, and they were added to the cells. These cells were cultured at 37 °C under 5%CO2 atmosphere for 3 days. IL-4 and IL-5 in the culture supernatants after 3 days were quantitatively determined by ELISA method. IL-4 and IL-5 were quantitatively determined using IL-4 Development Kit (Genzyme Techne) and mouse IL-5 MiniKit (ENDOGEN), respectively. The production inhibiting rates of each tested compound against IL-4 are shown in Table 22, those against IL-5 in Table 23.
(In an ELISA, binding on a coated surface is turned into a signal by an enzyme label.)

For a further assay, the system named is TNF-α production. Nature of the assay: TNF-α production inhibiting test using human PBMC (LPS stimulus, ELISA). Format: cell-based. Conditions: LPS 10 ng/ml, 16 hours, ELISA of culture supernatants. As for the experimental part: Example 145: TNF-α production inhibiting test using human PBMC (peripheral blood mononuclear cells)
Preparation of human PBMC
The blood of a healthy person was taken with a vacuum blood-collecting tube (Nipro neotube) and diluted up to two-fold with physiological saline (Otsuka Pharmaceuticals). To the diluted blood was added 6% dextran T-500 (prepared after dissolution in physiological saline (Otsuka Pharmaceuticals) and sterilization with an autoclave) so as to make a final concentration of 1%. The solution was subjected to tumble mixing and allowed to stand at room temperature for 30 minutes to precipitate the erythrocytes. The supernatant was collected and subjected to centrifugation at 20 °C and at 1,500 rpm for 10 minutes. The cells were suspended in 3 ml of RPMI1640 culture medium (Asahi Technogllas) and overlaid on the solution surface of 3 ml Lymphoprep (NYCOMED). Further, with 1.5 ml of RPMI1640 culture medium being added to the tube which had contained the cell suspension liquid, the cells attached to the tube, which had remained uncollected, were suspended for collection and overlaid on the Lymphoprep previously mentioned. This operation was repeated again. After centrifugation at 20 °C and at 2,000 rpm for 30 minutes, there was collected a fraction of peripheral blood mononuclear cells present in the boundary surface between the Lymphoprep and the RPMI1640 culture medium. The cells were washed twice with 10 ml RPMI1640 culture medium to remove the Lymphoprep and then suspended in a RPMI1640 culture medium added with 10% bovine fetal serum (IRVINE SCIENTIFIC), 100 U/ml penicillin and 100 µg/ml streptomycin (hereinafter referred to as cRPMI1640 culture medium). The number of the cells was measured by Tuerk dying, and the cells, after adjustment to 3 × 10^6 cells/ml, were planted in 100 µl/well on a 96-well plate (FALCON). The cells were cultured at 37 °C under 5%CO2 atmosphere for about 5 hours.
Induction of TNF-α production by LPS stimulus
LPS (E.coli 0111:B4, DIFCO), which had been prepared to 10 mg/ml with water and kept at -20, was diluted to 100 µg/ml with cRPMI1640 culture medium and subjected to sterile filtration. The 100 µg/ml LPS was diluted with cRPMI1640 culture medium to prepare 20 ng/ml LPS. A compound to be tested which was dissolved in DMSO at 1,000-fold concentration was diluted to 500-fold with cRPMI1640 culture medium containing 20 ng/ml LPS and added in 100 µl/well to the cells which had been planted on the previously mentioned 96-well plate (final concentration of LPS: 10 ng/ml). For use as the control group, the solutions were made by diluting DMSO of the same volume as in the test compounds with cRPMI1640 culture medium containing 20 ng/ml LPS, and they were added to the cells. These cells were cultured at 37 °C under 5%CO2 atmosphere for 16 hours.
Determination of TNF-α activity (ELISA method)
To the 96-well plate the mouse anti-human TNF-α antibody (prepared to 2 µg/ml with Coating buffer*^1) was added so as to make 100 µl/well and allowed to stand at 4 °C overnight. After 5-times washing with Wash buffer*^2 (300µl/well), the Blocking buffer*^3 was added to the solutions, which were allowed to stand 37 °C for 2 hours. The culture supernatants were diluted up to 5-fold in the plate (supernatant 20 µl being added to 80 µl of cRPMI1640 culture medium). Simultaneously, for using for a calibration curve, a series of dilution of recombinant human TNF-α was prepared arid allowed to stand 37 °C for 1 hour. After 5-times washing with Wash buffer (300 µl /well), biotinylated rabbit anti-human TNF-α antibody (prepared to 0.25 µg/ml with Antibody diluent*^4) was added so as to make 100 µl /well and allowed to stand at 37 °C for 1 hour. After 5-times washing with Wash buffer (300 µl /well), Streptavidin-Horseradish peroxidase(prepared to 1:4000 with Antibody diluent) was added to make 100 µl /well and allowed to stand at 37 °C for 15 minutes. […]

As to `O=[N+]([O-])c1cc2c(NCc3ccco3)ncnc2cc1N1CCNCC1` [Example 51, 4-[(2-furyl)methylamino]-6-nitro-7-(piperazin-1-yl)quinazoline], 100 nM corresponded to half-maximal inhibition with IL-4 production (IC50).

As to `O=[N+]([O-])c1cc2c(NCCc3ccc(O)cc3)ncnc2cc1N1CCNCC1` [Example 80, 4-[2-(4-hydroxyphenyl)ethylamino]-6-nitro-7-(piperazin-1-yl)quinazoline], in the assay with TNF-α production, it took 2500 nM to reach half-maximal inhibition (IC50).

For the compound `Nc1ccc(CCNc2ncnc3cc(N4CCNCC4)c([N+](=O)[O-])cc23)cc1` [Example 81, 4-[2-(4-anilino)ethylamino]-6-nitro-7-(piperazin-1-yl)quinazoline], the half-maximal inhibitory concentration (IC50) with TNF-α production is 2500 nM. This counts as single-digit micromolar.

Turning to `CC(CNc1ncnc2cc(N3CCNCC3)c([N+](=O)[O-])cc12)c1ccccc1` (stereo not drawn) [Example 82, 4-(2-methyl-2-phenylethylamino)-6-nitro-7-(piperazin-1-yl)quinazoline], the IC50 with TNF-α production was determined as 7200 nM.

Compound `O=[N+]([O-])c1cc2c(NC3CCN(Cc4ccccc4)CC3)ncnc2cc1N1CCNCC1` [Example 86, 4-[(1-benzyl-4-piperidyl)amino]-6-nitro-7-(piperazin-1-yl)quinazoline] came in with an IC50 in the assay on TNF-α production of 6400 nM. This IC50 and that of the compound before are within 1.5-fold of each other.

`O=[N+]([O-])c1cc2c(N3CCN(c4ccccc4)CC3)ncnc2cc1N1CCNCC1` [Example 98, 6-nitro-4-(4-phenylpiperazinyl)-7-piperazinylquinazoline] yielded a concentration for half-maximal inhibition (IC50) with TNF-α production of 2100 nM.

`COc1ccc(N2CCN(c3ncnc4cc(N5CCNCC5)c([N+](=O)[O-])cc34)CC2)cc1` [Example 99, 4-[(4-methoxyphenyl)piperazinyl]-6-nitro-7-piperazinylquinazoline] yielded a half-inhibitory concentration (IC50) with TNF-α production of 900 nM.

With `O=[N+]([O-])c1cc2c(N3CCN(c4ccc(Cl)cc4)CC3)ncnc2cc1N1CCNCC1` [Example 101, 4-[(4-chlorophenyl)piperazinyl]-6-nitro-7-piperazinylquinazoline], the IC50 with TNF-α production amounted to 1400 nM.

In the assay on TNF-α production, `Fc1ccc(CNc2ncnc3cc(N4CCNCC4)c(F)cc23)cc1` [Example 113, 6-fluoro-4-(4-fluorobenzylamino)-7-(piperazin-1-yl)quinazoline] came in with a 50% inhibitory concentration (IC50) of 900 nM.

In turn, `Fc1cc2c(NCc3ccc4c(c3)OCO4)ncnc2cc1N1CCNCC1` [Example 114, 6-fluoro-4-[3,4-(methylenedioxy)benzylamino]-7-(piperazin-1-yl)quinazoline] yielded an IC50 in the assay on TNF-α production of 600 nM.

On to `Fc1cc2c(Nc3ccc4c(c3)OCO4)ncnc2cc1N1CCNCC1` [Example 116, 6-fluoro-4-[(3,4-methylenedioxy)anilino]-7-(piperazin-1-yl)quinazoline], for which, in the assay on TNF-α production, the IC50 was found to be 3000 nM.

Compound `Fc1ccc(CCNc2ncnc3cc(N4CCNCC4)c(F)cc23)cc1` [Example 117, 6-fluoro-4-[2-[(4-fluoro)phenyl]ethylamino]-7-(piperazin-1-yl)quinazoline] gave an IC50 in the assay on TNF-α production of 4700 nM.

In the assay with TNF-α production, `Fc1cc2c(NCCc3ccc4c(c3)OCO4)ncnc2cc1N1CCNCC1` [Example 118, 6-fluoro-4-[2-[(3,4-methylenedioxy)phenyl]ethylamino]-7-(piperazin-1-yl)quinazoline] showed an IC50 of 2200 nM.

The compound `Fc1ccc(CCCNc2ncnc3cc(N4CCNCC4)c(F)cc23)cc1` [Example 119, 6-fluoro-4-[3-[(4-fluoro)phenyl]propylamino]-7-(piperazin-1-yl)quinazoline] returned a concentration for half-maximal inhibition (IC50) in the assay on TNF-α production of 2300 nM.

In the assay with TNF-α production, `Fc1cc2c(NCCCc3ccc4c(c3)OCO4)ncnc2cc1N1CCNCC1` [Example 120, 6-fluoro-4-[3-[(3,4-methylenedioxy)phenyl]propylamino]-7-(piperazin-1-yl)quinazoline] registered a half-inhibitory concentration (IC50) of 2000 nM.

For `Fc1cc2c(NCc3ccc4c(c3)OCCO4)ncnc2cc1N1CCNCC1` [Example 121, 4-[(3,4-ethylenedioxy)benzylamino]-6-fluoro-7-(piperazin-1-yl)quinazoline], the IC50 in the assay on TNF-α production stood at 2500 nM.

Compound `CN(Cc1ccc2c(c1)OCO2)c1ncnc2cc(N3CCNCC3)c(F)cc12` [Example 122, 6-fluoro-4-[[N-methyl-N'-(3,4-methylenedioxybenzyl)]amino]-7-(piperazin-1-yl)quinazoline] registered an IC50 in the assay with TNF-α production of 600 nM.

For the compound `O=[N+]([O-])c1cc2c(Nc3ccc(F)cc3)ncnc2cc1N1CCNCC1` [Example 123, 4-[(4-fluoro)anilino]-6-nitro-7-(piperazin-1-yl)quinazoline], in the assay with TNF-α production, the IC50 was found to be 600 nM.

In the assay with TNF-α production, `O=[N+]([O-])c1cc2c(Nc3ccc4c(c3)OCO4)ncnc2cc1N1CCNCC1` [Example 124, 4-[(3,4-methylenedioxy)anilino]-6-nitro-7-(piperazin-1-yl)quinazoline] yielded an IC50 of 1700 nM.

Compound `O=[N+]([O-])c1cc2c(NCCc3ccc4c(c3)OCO4)ncnc2cc1N1CCNCC1` [Example 125] showed a half-inhibitory concentration (IC50) in the assay with TNF-α production of 3300 nM.

For the compound `O=[N+]([O-])c1cc2c(NCCCc3ccc(F)cc3)ncnc2cc1N1CCNCC1` [Example 126, 4-[3-[(4-fluoro)phenyl]propylamino]-6-nitro-7-(piperazin-1-yl)quinazoline], in the assay with TNF-α production, it took 700 nM to reach half-maximal inhibition (IC50).

`O=[N+]([O-])c1cc2c(NCCCc3ccc4c(c3)OCO4)ncnc2cc1N1CCNCC1` [Example 127, 4-[3-[(3,4-methylenedioxy)phenyl]propylamino]-6-nitro-7-(piperazin-1-yl)quinazoline]: the IC50 in the assay with TNF-α production amounted to 500 nM.

In the case of `O=[N+]([O-])c1cc2c(NCc3ccc(F)c(F)c3)ncnc2cc1N1CCNCC1` [Example 128, 4-[(3,4-difluoro)benzylamino]-6-nitro-7-(piperazin-1-yl)quinazoline], the IC50 with TNF-α production stood at 700 nM.

`O=[N+]([O-])c1cc2c(NCc3ccc4c(c3)OCCO4)ncnc2cc1N1CCNCC1` [Example 130, 4-[(3,4-ethylenedioxy)benzylamino]-6-nitro-7-(piperazin-1-yl)quinazoline] came in with a 50% inhibitory concentration (IC50) in the assay with TNF-α production of 2500 nM.
